Reference: PubChem BioAssay AID2060898 (Molecular Pharmacology Branch, DTP, NCI, 2025)
Where “and” joins values, the source holds several entries; their conditions need not be identical. Equal values may be shown once.

Test system: 616215-338-R-J1-PDC complex spheroid viability
Assay: Anticancer human tumor 616215-338-R-J1-PDC patient-derived colon adenocarcinoma cell line growth inhibition [RAS]
Details: for viability, T/C: stronger effect = lower value
From the text: RAS pathway inhibitors in Combinations in Complex Spheroids
A high-throughput screen of multi-cell type tumor spheroids was designed to identify active combinations of RAS pathway inhibitors and targeted small molecules. Complex spheroids include a stromal component modeled by human endothelial cells (HUVEC) and fibroblasts modeled by human mesenchymal stem cells (MSCs). The concentration ranges selected for each drug and investigational agent were based upon clinically achievable concentrations if the clinical Cmax of the agent was known.
Compounds. The drugs and investigational agents: abemaciclib (NSC768073), cobimetinib (NSC768068), divarasib (GDC6063, NSC841802), docetaxel (NSC628503), GDC-1971 (RLY-1971, NSC841576), gemcitabine (NSC613327), inavolisib (NSC800729), ipatasertib (NSC767898), KB-0742 (NSC834161), MRTX-1133 (NSC836407), osimertinib (NSC779217), RMC-4630 (NSC839698), RMC-6236 (NSC851965), RMC-6291 (NSC852671), Ro-3306 (NSC812927), sapanisertib (NSC764658), SN-38 (NSC673596), staurosporine (NSC755774), SY5609 (NSC837396), and tovorafenib (DAY101, NSC766906), were obtained from the National Cancer Institute (NCI) Developmental Therapeutics Program Chemical Repository. The FDA-approved anticancer drug set is available from the NCI Developmental Therapeutics Program. […] The stock solutions were prepared in dimethyl sulfoxide (DMSO, Sigma-Aldrich, St. Louis, MO, cat. D2650) at 800-fold the tested concentration and stored at -70 degrees C prior to their use. All drugs and investigational agents were tested over a range starting from a high concentration at or near the clinical Cmax and decreasing in half-log increments. If the clinical Cmax for an agent had not been determined, the highest concentration tested was 10 microM.
Cell Culture. All cells were maintained in an incubator at 37 degrees C and 5% CO2 with 95% humidity. The PDC lines were cultured according to standard operating procedures established by the NCI PDMR. All PDCs were thawed and cultured in Matrigel-coated flasks prepared with a working solution of 1X Ham's F-12 nutrient mix, without supplementation (Invitrogen, Waltham, MA, cat. 11765054), 100 U/mL penicillin-streptomycin (Invitrogen, cat. 15140122), and 2.5% Matrigel (Corning Inc., Corning, NY, cat. 354248) for the first three passages. The 362531-283-R-J2-PDC and 782815-120-R-J1-PDC lines were cultured in 6C/Colon 1B media, which includes advanced DMEM/F-12 (Thermo Fisher Scientific, cat. 12634028), 10 mM HEPES (Thermo Fisher Scientific, cat. 15630080), 1X GlutaMAX supplement (Thermo Fisher Scientific, cat. 35050061), 0.1 mg/mL primocin (InvivoGen, San Diego, CA, cat. ant-pm-2), 10% defined fetal bovine serum, heat inactivated (HyClone Laboratories Inc., Logan, UT, cat. SH30070.03HI), 50% L-WRN conditioned media (ATCC, cat. CRL-3276), 1.25 mM N-Acetyl-L-cysteine (Sigma-Aldrich, cat. A9165), 10 mM nicotinamide (Sigma-Aldrich, cat. N0636), 1X B-27 supplement (Thermo Fisher Scientific, cat. 17504044), 1X N-2 supplement (Thermo Fisher Scientific, cat. 17502048), 50 ng/mL human EGF (Thermo Fisher Scientific, cat. PHG0311), and 10 microM Y-27632 dihydrochloride (Tocris Bioscience, cat. 1254). The K12877-001-R-J1-PDC line was cultured in 6I media, which includes all 6C/Colon 1B media plus 10 ng/mL human FGF-10 (PeproTech, cat. 100-26), 1 ng/mL human FGF-2 (PeproTech, cat. 100-18B), 1 µM prostaglandin E2 (Tocris Bioscience, cat. 2296), […] hydrocortisone (Sigma-Aldrich, cat. H4001), and […] bovine insulin (Sigma-Aldrich, cat. I6634). The K86415-001-R-J1-PDC line was cultured in 6D media, which includes all 6C/Colon 1B media components minus the L-WRN conditioned media. The 485176-168-R4-J1-PDC was cultured in PANC media, which includes all 6C/Colon 1B media plus 100 ng/mL human FGF-10 (PeproTech, cat. 100-26), 500 nM SB-431542 (Selleckchem, cat. S1067), and 10 nM gastrin (Tocris Bioscience, cat. 3006). […]

[1] = compound alone, run of 06/10/2024
[2] = compound alone, run of 05/20/2024
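Also: spheroids exposed to agents for seven days before viability readout.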
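For viability, T/C in this document: 100% = DMSO vehicle control viability.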

Row | IC50 (curve of compound) | SMILES | viability, T/C (compound 0.0316 µM) | viability, T/C (compound 0.1 µM) | viability, T/C (compound 0.316 µM) | viability, T/C (compound 1 µM) | viability, T/C (compound 3.16 µM) | viability, T/C (compound 10 µM) | viability, T/C (compound 0.00316 µM) | viability, T/C (compound 0.01 µM) | further results
1 | – | C#Cc1c(F)ccc2cc(O)cc(-c3ncc4c(N5CC6CCC(C5)N6)nc(OCC56CCCN5CC(F)C6)nc4c3F)c12 (stereo unspecified) | 107% [middle of 8 runs] | 107% [middle of 8 runs] | 110% [middle of 8 runs] | 108% [middle of 8 runs] | 102% [middle of 8 runs] | 70.6% [middle of 8 runs] | – | – | IC50 [1]: > 10 µM
2 | > 1 µM | C=CC(=O)N1CCN(c2nc(OCC3CCCN3C)nc3c(F)c(-c4nc(N)cc(C)c4C(F)(F)F)c(Cl)cc23)C(C)C1 (stereo unspecified) | 99.4% [middle of 12 runs] | 102% [middle of 12 runs] | 104% [middle of 12 runs] | 103% [middle of 12 runs] | – | – | 100% [middle of 12 runs] | 102% [middle of 12 runs] | IC50 [1]: > 1 µM
3 | > 1 µM | C=CC(=O)Nc1cc(Nc2nccc(-c3cn(C)c4ccccc34)n2)c(OC)cc1N(C)CCN(C)C | 103% [middle of 4 runs] | 105% [middle of 4 runs] | 109% [middle of 4 runs] | 74.3% [middle of 4 runs] | – | – | 96.5% [middle of 4 runs] | 100% (2×) and 96% and 97.4% | –
4 | – | CC(C)NCC(C(=O)N1CCN(c2ncnc3c2C(C)CC3O)CC1)c1ccc(Cl)cc1 (stereo unspecified) | 105% [middle of 4 runs] | 100% [middle of 4 runs] | 100% [middle of 4 runs] | 101% [middle of 4 runs] | 95.3% (2×) and 87.8% and 95.7% | 49.3% [middle of 4 runs] | – | – | –
5 | > 0.1 µM | CC(C)n1nc(-c2ccc3oc(N)nc3c2)c2c(N)ncnc21 | 110% [middle of 4 runs] | 75.2% [middle of 4 runs] | – | – | – | – | 94.6% and 107% (2×) and 98% | 107% [middle of 4 runs] | viability, T/C (compound 0.000316 µM): 99.5% (2×) and 101% and 97.1%; viability, T/C (compound 0.001 µM): 105% [middle of 4 runs]
6 | > 10 µM | CC(Nc1ccc2c(c1)OCCn1cc(N3C(=O)OCC3C(F)F)nc1-2)C(N)=O (stereo unspecified) | 111% [middle of 4 runs] | 108% [middle of 4 runs] | 110% [middle of 4 runs] | 107% [middle of 4 runs] | 102% [middle of 4 runs] | 83.5% [middle of 4 runs] | – | – | –
7 | 20.3 nM [middle of 4 runs] | CC1(C)CCC(Nc2ncc(C(F)(F)F)c(-c3c[nH]c4c(P(C)(C)=O)c(C#N)ccc34)n2)CN1 (stereo unspecified) | – | – | – | – | – | – | – | – | viability, T/C (compound 0.000949 µM): 98.8% [middle of 4 runs]; viability, T/C (compound 0.003 µM): 101% [middle of 4 runs]; viability, T/C (compound 0.00949 µM): 66.1% [middle of 4 runs]; viability, T/C (compound 0.03 µM): 40.8% [middle of 4 runs]; viability, T/C (compound 0.0949 µM): 37% [middle of 4 runs]; viability, T/C (compound 0.3 µM): 35.2% [middle of 4 runs]
8 | 1.23 µM [middle of 4 runs] | CC1(O)CCCC1n1c(=O)c(C(F)F)cc2cnc(NC3CCN(S(C)(=O)=O)CC3)nc21 (stereo unspecified) | 112% [middle of 4 runs] | 103% [middle of 4 runs] | 59.3% [middle of 4 runs] | 56.1% [middle of 4 runs] | 48.9% [middle of 4 runs] | 2.6% [middle of 4 runs] | – | – | –
9 | 1.8 µM [middle of 4 runs] | CCC(CC)c1cc(NC2CCC(N)C2)n2nccc2n1 (stereo unspecified) | 109% [middle of 4 runs] | 99.7% and 102% (2×) and 93.3% | 93.8% [middle of 4 runs] | 107% [middle of 4 runs] | 0.63% [middle of 4 runs] | 0.37% [middle of 4 runs] | – | – | –
10 | > 1 µM | CCN1CCN(Cc2ccc(Nc3ncc(F)c(-c4cc(F)c5nc(C)n(C(C)C)c5c4)n3)nc2)CC1 | 113% [middle of 4 runs] | 117% (3×) and 120% | – | 64.1% (2×) and 70.2% and 59.4% | – | – | – | 104% [middle of 4 runs] | –
11 | – | CCc1c2c(nc3ccc(O)cc13)-c1cc3c(c(=O)n1C2)COC(=O)[C@]3(O)CC | – | – | – | – | – | – | – | – | viability, T/C (compound 0.000949 µM): 104% [middle of 4 runs]; viability, T/C (compound 0.003 µM): 105% [middle of 4 runs]; viability, T/C (compound 0.03 µM): 37.2% [middle of 4 runs]; viability, T/C (compound 0.0949 µM): 24.3% [middle of 4 runs]; viability, T/C (compound 0.3 µM): 16.9% [middle of 4 runs]
12 | – | CCn1c(-c2cc(N3CCN(C)CC3)cnc2C(C)OC)c2c3cc(ccc31)-c1csc(n1)CC(NC(=O)C1CC1C)C(=O)N1CCCC(N1)C(=O)OCC(C)(C)C2 (stereo unspecified) | – | – | – | – | – | – | – | – | viability, T/C (compound 0.000949 µM): 107% [middle of 8 runs]; viability, T/C (compound 0.003 µM): 106% [middle of 8 runs]; viability, T/C (compound 0.00949 µM): 81.7% [middle of 8 runs]; viability, T/C (compound 0.03 µM): 53.7% [middle of 8 runs]; viability, T/C (compound 0.0949 µM): 40.6% [middle of 8 runs]; viability, T/C (compound 0.3 µM): 37.5% [middle of 8 runs]; IC50 [2]: 41.2 nM [middle of 8 runs]
13 | – | CCn1c(-c2cccnc2C(C)OC)c2c3cc(ccc31)N1CCOC(CC(NC(=O)C(C(C)C)N(C)C(=O)C3(F)CCN(C(=O)C#CC(C)(C)N(C)C)CC3)C(=O)N3CCCC(N3)C(=O)OCC(C)(C)C2)C1 (stereo unspecified) | – | – | – | – | – | – | – | – | viability, T/C (compound 0.000949 µM): 102% [middle of 8 runs]; viability, T/C (compound 0.003 µM): 102% [middle of 8 runs]; viability, T/C (compound 0.00949 µM): 107% [middle of 8 runs]; viability, T/C (compound 0.03 µM): 106% [middle of 8 runs]; viability, T/C (compound 0.0949 µM): 110% [middle of 8 runs]; viability, T/C (compound 0.3 µM): 109% [middle of 8 runs]; IC50 [2]: > 0.3 µM
14 | > 10 µM and 8.87 µM | C[C@@H](NC(=O)c1ncnc(N)c1Cl)c1ncc(C(=O)Nc2cc(C(F)(F)F)c(Cl)cn2)s1 | 102% [middle of 4 runs] | 110% [middle of 4 runs] | 112% [middle of 4 runs] | 124% and 105% and 112% (2×) | – | – | – | – | –
15 | 9.77 nM [middle of 4 runs] | Nc1ccn(C2OC(CO)C(O)C2(F)F)c(=O)n1 (stereo unspecified) | 29.4% [middle of 4 runs] | 16.2% [middle of 4 runs] | 15.4% [middle of 4 runs] | 15.7% [middle of 4 runs] | – | – | 101% [middle of 4 runs] | 46.9% [middle of 4 runs] | –
16 | 78 nM [middle of 4 runs] | O=C(c1ccc(F)c(F)c1Nc1ccc(I)cc1F)N1CC(O)([C@@H]2CCCCN2)C1 | 81.5% [middle of 4 runs] | 41.5% [middle of 4 runs] | 19.9% [middle of 4 runs] | 5.56% [middle of 4 runs] | – | – | 111% [middle of 4 runs] | 102% (2×) and 95.7% and 113% | –
